Assay results published in ChEMBL document CHEMBL4616615, “Screening for tyrosinase inhibitors from actinomycetes; identification of trichostatin derivatives from Streptomyces sp. CA-129531 and scale up production in bioreactor” (Bioorg Med Chem Lett, 2020).

How the values were obtained:
A549 = assay: cells; settings: Homo sapiens
Description: Cytotoxicity against human A549 cells assessed as reduction in cell viability

MCF7 = assay: cells; settings: Homo sapiens
A2058 = assay: Cytotoxicity against human A2058 cells assessed as reduction in cell viability; assay type: cell-based
HepG2 = assay: cells; settings: Homo sapiens
Description: Cytotoxicity against human HepG2 cells assessed as reduction in cell viability

MIA PaCa-2 = assay: cells; settings: Homo sapiens
Description: Cytotoxicity against human MIAPaCa2 cells assessed as reduction in cell viability

Mushroom tyrosinase [1] = target: T1, Mushroom tyrosinase (Agaricus bisporus, UniProt O42713+Q00024+C7FF04+C7FF05); assay: Inhibition of mushroom tyrosinase using L-DOPA as substrate
Mushroom tyrosinase [2] = target: T1, Mushroom tyrosinase; assay: Mixed-type of inhibition of mushroom tyrosinase using varying level of L-DOPA as substrate by Dixon plot analysis

| Compound | IC50 (A549) | IC50 (MCF7) | IC50 (A2058) | IC50 (HepG2) | IC50 (MIA PaCa-2) | IC50 (Mushroom tyrosinase [1]) | Ki (Mushroom tyrosinase [2]) |
| --- | --- | --- | --- | --- | --- | --- | --- |
| CC(/C=C/C(N)=O)=C\[C@@H](C)C(=O)c1ccc(N(C)C)cc1 | 8.3 µM | 2.74 µM | 0.64 µM | 3.19 µM | 9.46 µM | 19.18 µM |  |
| CNC(=O)/C=C/C(C)=C/[C@@H](C)C(=O)c1ccc(N(C)C)cc1 | > 50 µM | 18.4 µM | > 50 µM | 13.1 µM | 36.7 µM | 161.18 µM |  |
| CC(/C=C/C(=O)NO[C@@H]1O[C@H](CO)[C@@H](O)[C@H](O)[C@H]1O)=C\[C@@H](C)C(=O)c1ccc(N(C)C)cc1 | 25 µM | 18.9 µM | 37.3 µM | 17.8 µM | 37.9 µM | 174.33 µM |  |
| CC(/C=C/C(=O)O)=C\[C@@](C)(O)C(=O)c1ccc(N(C)C)cc1 | > 50 µM | > 50 µM | > 50 µM | > 50 µM | > 50 µM |  |  |
| CC(/C=C/C(=O)O)=C\[C@H](C)C(=O)c1ccc(N(C)C)cc1 | > 50 µM | > 50 µM | > 50 µM | > 50 µM | > 50 µM |  |  |
| CC(/C=C/C(=O)N[C@@H](CCC(N)=O)C(=O)O)=C\[C@@H](C)C(=O)c1ccc(N(C)C)cc1 | > 50 µM | > 50 µM | > 50 µM | > 50 µM | > 50 µM |  |  |
| COc1cccc2c1C(=O)c1c(O)c3c(c(O)c1C2=O)C[C@@](O)(C(=O)CO)C[C@@H]3O[C@H]1C[C@H](N)[C@H](O)[C@H](C)O1 [DOXORUBICIN] | 3.76 µM |  | < 0.11 µM | < 0.11 µM | 1.02 µM |  |  |
| CC(/C=C/C(=O)NO)=C\[C@@H](C)C(=O)c1ccc(N(C)C)cc1 [TRICHOSTATIN] | 1.31 µM | 0.3 µM | 0.43 µM | 0.38 µM | 0.9 µM | 2.18 µM | 6.1 µM |
